The values that follow come from ChEMBL document CHEMBL3045514, “An efficient one-pot cyclization of quinoline thiosemicarbazones to quinolines derivatized with 1,3,4-thiadiazole as anticancer and anti-tubercular agents” (Med Chem Res, 2012).

Converted amounts (≈) assume the structure as drawn. The source made the active and inactive calls. No cut-off for these calls is given here.

In data set [1] the test system is Mycobacterium tuberculosis. Description: Antitubercular activity against Mycobacterium tuberculosis H37Rv measured twice a week for 3 weeks by Ziehl-Neelsen staining. It counts as functional. The settings on record: 504 h.
The next data set deals with HeLa. Description: Cytotoxicity against Homo sapiens (human) HeLa cells assessed as cell mortality after 24 to 72 hr by inverted microscopic analysis. It counts as functional.
For another data set, the species on record is Mus musculus. Description: Toxicity in Mus musculus (mouse) assessed as irritation. The data set is classed as organism-based. The settings on record: in vivo.
Data set [2] concerns Mycobacterium tuberculosis. Description: Antitubercular activity against Mycobacterium tuberculosis H37Rv at 5 ug/ml measured twice a week for 3 weeks by Ziehl-Neelsen staining. It counts as functional, organism-based.
Data set [3] has as its system Mycobacterium tuberculosis. Description: Antitubercular activity against Mycobacterium tuberculosis H37Rv at 10 ug/ml measured twice a week for 3 weeks by Ziehl-Neelsen staining. The data set is classed as functional, organism-based.
Data set [4] deals with Mycobacterium tuberculosis. Description: Antitubercular activity against Mycobacterium tuberculosis H37Rv at 25 ug/ml measured twice a week for 3 weeks by Ziehl-Neelsen staining. It counts as functional, organism-based.

Regarding `CC(=O)NC1=NN(C(C)=O)C(c2cc3cccc(C)c3nc2Cl)S1` (stereo not drawn), the minimum inhibitory concentration (MIC) in data set [1] stood at 5 µg/mL (≈ 13.8 µM). The Activity with HeLa was 25 µg/mL; in the data set listed under Mus musculus, “Non-toxic”. For the same compound, in data set [2], the outcome was inactive. In addition, the result in data set [3] and in data set [4] was Active.

For the compound `CC(=O)NC1=NN(C(C)=O)C(c2cc3ccccc3nc2Cl)S1` (stereo not drawn), the Activity with HeLa was 15 µg/mL; in the data set filed under Mus musculus, “Non-toxic”. The outcome in data set [2] was inactive. For the same compound, the result in data set [3] and in data set [4] was Active.

Consider `CC(=O)NC1=NN(C(C)=O)C(c2cc3cc(C)ccc3nc2Cl)S1` (stereo not drawn), for which the figures for the Activity in the data set with HeLa and in the data set listed under Mus musculus were 10 µg/mL and “Non-toxic”, respectively. Further, the outcome in data set [2] was inactive. In addition, the outcome in data set [3] and in data set [4] was Active.

With `COc1ccc2cc(C3SC(NC(C)=O)=NN3C(C)=O)c(Cl)nc2c1` (stereo not drawn), the Activity was 15 µg/mL with HeLa and “Non-toxic” in the data set filed under Mus musculus. For the same compound, in data set [2], the result was inactive. Besides, the outcome in data set [3] and in data set [4] was Active.

Consider `CC(=O)NC1=NN(C(C)=O)C(c2cc3ccc(C)cc3nc2Cl)S1` (stereo not drawn), for which the values for the Activity in the data set on HeLa and in the data set listed under Mus musculus were 20 µg/mL and “Non-toxic”, respectively. Also, the result in data set [2] was inactive. Also, the result in data set [3] and in data set [4] was Active.

`COc1cc2cc(C3SC(NC(C)=O)=NN3C(C)=O)c(Cl)nc2cc1OC` (stereo not drawn): the Activity in the data set with HeLa was 10 µg/mL; in the data set listed under Mus musculus, “Non-toxic”. Also, the outcome in data set [2] was inactive. Further, the outcome in data set [3] and in data set [4] was Active.

Regarding `COc1ccc2nc(Cl)c(C3SC(NC(C)=O)=NN3C(C)=O)cc2c1` (stereo not drawn), the results for the Activity in the data set on HeLa and in the data set filed under Mus musculus were 10 µg/mL and “Non-toxic”, respectively. Besides, in data set [2], the outcome was inactive. The result in data set [3] and in data set [4] was Active.

Regarding `CC(=O)NC1=NN(C(C)=O)C(c2cc3cc(Br)ccc3nc2Cl)S1` (stereo not drawn), the Activity was 20 µg/mL in the data set with HeLa and “Non-toxic” in the data set filed under Mus musculus. Further, in data set [2], the result was inactive. Further, the outcome in data set [3] and in data set [4] was Active.

In data set [1], `CN[C@@H]1[C@H](O[C@H]2[C@H](O[C@H]3[C@H](O)[C@@H](O)[C@H](N=C(N)N)[C@@H](O)[C@@H]3N=C(N)N)O[C@@H](C)[C@]2(O)C=O)O[C@@H](CO)[C@H](O)[C@H]1O` [STREPTOMYCIN] gave an MIC of 10 µg/mL (≈ 17.2 µM).

As for `CC(=O)NC1=NN(C(C)=O)C(c2cc3ccc(Cl)cc3nc2Cl)S1` (stereo not drawn), the Activity in the data set with HeLa is 20 µg/mL; in the data set filed under Mus musculus, “Non-toxic”. The outcome in data set [2] was inactive. Besides, the outcome in data set [3] and in data set [4] was Active.

In data set [1], `COc1cccc2cc(C3SC(NC(C)=O)=NN3C(C)=O)c(Cl)nc12` (stereo not drawn) gave an MIC of 5 µg/mL (≈ 13.2 µM). Further, the Activity is 15 µg/mL with HeLa and “Non-toxic” in the data set listed under Mus musculus. Further, the result in data set [2] was inactive. Further, the outcome in data set [3] and in data set [4] was Active.

As a reminder, the MIC is the lowest concentration found to suppress growth.
